Measured values published in US20110165266A1 (priority 2008, published 2011).
Where two headings read alike, the source gives them in different places.

How the values were obtained:
HIV [1] = assay: HIV infection with suboptimal (20 mM) chlorate; conditions: FIG. 21B
HIV [2] = assay: HIV infection in low versus high sulfate media; conditions: FIG. 20B
[3] = test system: VSV-G pseudotyped HIV-1 vector NL43E-R-Luc; type: cell-based
[4] = test system: resident (pCMMP-SEAP) and newly acquired (MMP-nls-lacZ[VSV-G]) MLV proviruses; type: cell-based, murine leukemia virus (MLV)
[5] = test system: MLV LTR-driven mRNA transcription (pCMMP-EGFP); type: cell-based, murine leukemia virus (MLV)
[6] = test system: MLV vector pMMp-nls-LacZ[VSV-G]; type: cell-based, murine leukemia virus (MLV)
[7] = test system: VSV-G pseudotyped MLV vector (pLEGFP); type: cell-based, murine leukemia virus (MLV)
[8] = test system: VSV-G pseudotyped MLV vector (MMP-nls-lacZ[VSV-G]); type: cell-based, murine leukemia virus (MLV)
[9] = test system: MLV vector pMMp-nls-LacZ[VSV-G]; type: cell-based, murine leukemia virus (MLV); remark: listed apart in the source
aryl sulfotransferases = conditions: cited from earlier work

With Cc1cn([C@H]2C[C@H](N=[N+]=[N-])[C@@H](CO)O2)c(=O)[nH]c1=O [AZT] the “inhibition of HIV infection in media containing 20 mM chlorate versus standard media” value (HIV [1]) was “unaffected by 20 mM chlorate” and the “inhibition of HIV infection in low sulfate media versus high sulfate media” value (HIV [2]) was “unaffected by low sulfate conditions”.
In the case of [O-][Cl+2]([O-])O [chlorate], the “reduction in HIV LTR-driven reporter gene expression” value [3] was 10 fold, the “effect on gene expression from newly acquired versus resident proviruses” value [4] was “affected gene expression from the newly acquired, but not the resident proviruses” and the “influence on β-galactosidase expression from a resident MLV vector” value [4] was “not to influence”. The “reduction of viral-derived transcript levels, normalized to β-actin” value [5] was 11 fold, the “additional reduction of MLV infection” value [6] was 2 fold and the “effect on accumulation of viral reverse transcription products” value [7] was “no effect”. The “fold less blue cells as compared to untreated cells” value [8] was “approximately 6.7 fold”, the “time of addition that had no effect on viral reporter gene expression” value [8] was at least 18 hpi and the “time of addition that led to a reduction in subsequent viral reporter gene expression” value [8] was “up to 16 hpi”. For the same compound, the “fold less susceptible to infection, by reporter gene expression” value [9] was “approximately 9.3 fold”.
In the case of COc1ccccc1O [guaiacol], the “reduction in HIV LTR-driven reporter gene expression” value [3] is listed as 8 fold, the “reduction of viral-derived transcript levels, normalized to β-actin” value ([5]; CHO-K1 cells, 100 mM chlorate, 5 mM guaiacol or both, FIGS. 6D, 6E) is listed as 17 fold and the “quantities that interfere with aryl sulfotransferases” value (aryl sulfotransferases) is listed as “mM”. The “fold less blue cells as compared to untreated cells” value [8] was about 3.4 fold.
For Oc1cc(Cl)ccc1Oc1ccc(Cl)cc1Cl [trichlosan], the “quantities that interfere with aryl sulfotransferases” value (aryl sulfotransferases) is given as “μM”.
